SMILES strings stand for the structures.

From ChEMBL document CHEMBL1133839, “A new class of antiarrhythmic-defibrillatory agents” (2001) come the findings set out here.

Common to all, as to format: functional
Assay [1] relates to Felis catus. As to the kind of experiment: Evaluated for its relative defibrillating activity in male cats 10 min after injection at concentration 2 mg/Kg.
In assay [2] the test system is Felis catus. The experiment in a line: Evaluated for its relative defibrillating activity in male cats 10 min after injection at concentration 3 mg/Kg.
The test system of assay [3] is Felis catus. As to the kind of experiment: Evaluated for its relative defibrillating activity in male cats 10 min after injection at concentration 1 mg/Kg.
Assay [4] concerns Felis catus. As to the kind of experiment: Evaluated for its relative defibrillating activity in male cats 10 min after injection at concentration 0.5 mg/Kg.
In assay [5] the test system is Felis catus. The experiment in a line: Evaluated for its relative defibrillating activity in male cats 10 min after injection at 3 mg/Kg.
Assay [6] has as its system Felis catus. The experiment in a line: Evaluated for its relative defibrillating activity in male cats 10 min after injection at 1 mg/Kg.
The subject of assay [7] is Felis catus. As to the kind of experiment: Evaluated for its relative defibrillating activity in male cats 10 min after injection at 0.5 mg/Kg.
Assay [8] concerns Felis catus. The experiment in a line: Evaluated for its relative defibrillating activity in male cats 10 min after injection at 2 mg/Kg.

On to `CC(C)(C)NCCC(=O)N1c2ccccc2CCc2ccccc21.Cl`, for which the figures for the Relative activity in assay [1], in assay [2] and in assay [3] were 100%, 100% and 50%, respectively.

Turning to `CC(C)NC[C@H](O)CN1c2ccccc2CCc2ccccc21.Cl`, the Relative activity in assay [1] worked out at 100%; in assay [4] it was 75%; in assay [3] it was 100%.

On to `CC(C)CNCCC(=O)N1c2ccccc2CCc2ccccc21.Cl`, for which the Relative activity in assay [1], in assay [2] and in assay [3] was 0% each time.

In the case of `CNCCC(=O)N1c2ccccc2NC(=O)c2ccccc21.Cl`, the Relative activity in assay [1], in assay [2] and in assay [3] was 0% throughout.

Regarding `CC(C)NCC(O)CN1c2ccccc2CCc2ccccc21.Cl` (configuration not stated), the Relative activity in assay [1] turned out to be 100%; in assay [2] it was 100%; in assay [4], 50%; in assay [3], 50%.

Turning to `CCNCCC(=O)N1c2ccccc2NC(=O)c2ccccc21.Cl`, the Relative activity in assay [1] and in assay [2] was 0% each time.

For the compound `CC(C)NCCC(=O)N1c2ccccc2NC(=O)c2ccccc21.Cl`, the Relative activity in assay [1] and in assay [2] was 0% each time.

In the case of `CNCCC(=O)N1c2ccccc2CCc2ccccc21.Cl`, the Relative activity turned out to be 100% in assay [5], 25% in assay [6], 0% in assay [7] and 100% in assay [8].

With `CC(C)NCCC(=O)N1c2ccccc2CCc2ccccc21.Cl`, the Relative activity came out at 100% in assay [1], 100% in assay [5], 25% in assay [4] and 75% in assay [3].

For `CC(C)NC[C@@H](O)CN1c2ccccc2CCc2ccccc21.Cl`, the Relative activity in assay [1] stood at 100%; in assay [4], 50%; in assay [3] it was 50%.

For the compound `Cl.O=C(CCNCc1ccccc1)N1c2ccccc2CCc2ccccc21`, the Relative activity in assay [1], in assay [2] and in assay [3] was 0% throughout.

In the case of `CCC(C)NCCC(=O)N1c2ccccc2CCc2ccccc21.Cl` (configuration not stated), the Relative activity in assay [1], in assay [2] and in assay [3] was 0% throughout.

Regarding `CCNCCC(=O)N1c2ccccc2CCc2ccccc21.Cl`, the Relative activity stood at 100% in assay [5], 50% in assay [6], 0% in assay [7] and 75% in assay [8].

As for `CNCCCN1c2ccccc2CCc2ccccc21` [DESIPRAMINE], the Relative activity stood at 75% in assay [1], 100% in assay [2] and 25% in assay [3].

Regarding `CN(C)CCCN1c2ccccc2CCc2ccccc21` [IMIPRAMINE], the Relative activity in assay [1] is 50%; in assay [2] it was 75%; in assay [3], 0%.
